Experimental data taken from patent US9234000B2, “Benzylamine derivatives as inhibitors of plasma kallikrein” (KalVista Pharmaceuticals Limited, priority 2011, dated 2016).

How the values were obtained:
Human KLK1 = Human KLK1 (Homo sapiens (Human), UniProt P06870); assay: Determination of the IC50 for KLK1; type: biochemical; settings: Human KLK1, 37° C., substrate H-DVal-Leu-Arg-AFC; Table 13
In short: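 Human KLK1 incubated at 37 °C with fluorogenic substrate H-DVal-Leu-Arg-AFC and a range of test compound concentrations. Residual activity was taken as initial reaction rate from absorbance change at 410 nm, and the IC50 derived from it.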

Human plasma kallikrein = Human plasma kallikrein (Homo sapiens (Human), UniProt P03952); assay: Determination of the IC50 for plasma kallikrein; type: biochemical; settings: 37° C., substrate H-DPro-Phe-Arg-AFC, read-out: IC50 (human PKal)
In short: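 Human plasma kallikrein incubated at 37° C with fluorogenic substrate H-DPro-Phe-Arg-AFC and varying compound concentrations. Initial reaction rate followed by absorbance change at 410 nm to give residual activity and IC50.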

Chain of Human KLK1 (P06870 25-262): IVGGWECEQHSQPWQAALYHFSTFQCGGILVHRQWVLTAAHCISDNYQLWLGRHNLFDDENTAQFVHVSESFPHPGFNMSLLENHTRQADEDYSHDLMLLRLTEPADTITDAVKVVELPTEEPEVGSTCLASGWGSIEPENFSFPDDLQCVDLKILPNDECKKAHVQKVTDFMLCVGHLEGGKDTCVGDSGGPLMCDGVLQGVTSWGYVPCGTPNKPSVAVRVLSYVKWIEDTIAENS
Chain of Human plasma kallikrein (P03952 391-638): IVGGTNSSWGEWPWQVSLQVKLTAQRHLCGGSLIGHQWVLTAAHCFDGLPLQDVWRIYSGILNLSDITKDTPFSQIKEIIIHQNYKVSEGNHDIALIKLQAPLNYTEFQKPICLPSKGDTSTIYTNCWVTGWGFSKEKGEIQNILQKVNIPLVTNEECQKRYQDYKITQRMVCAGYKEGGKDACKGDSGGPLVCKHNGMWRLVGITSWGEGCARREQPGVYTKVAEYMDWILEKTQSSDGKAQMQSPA
Chain of Human plasma kallikrein (P03952 20-390 partner): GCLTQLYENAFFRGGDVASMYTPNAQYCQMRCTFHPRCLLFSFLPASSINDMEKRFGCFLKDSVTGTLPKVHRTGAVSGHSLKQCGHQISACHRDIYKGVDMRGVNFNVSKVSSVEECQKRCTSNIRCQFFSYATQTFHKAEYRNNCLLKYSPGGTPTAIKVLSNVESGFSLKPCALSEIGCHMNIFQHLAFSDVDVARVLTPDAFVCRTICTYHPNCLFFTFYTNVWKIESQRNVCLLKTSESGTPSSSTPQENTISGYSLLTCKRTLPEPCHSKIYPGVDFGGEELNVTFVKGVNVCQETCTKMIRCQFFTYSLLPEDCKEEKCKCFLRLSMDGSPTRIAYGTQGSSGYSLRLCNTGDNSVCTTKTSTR

Structure (SMILES) | IC50 (Human KLK1) [nM] | IC50 (Human plasma kallikrein) [nM]
CCOc1ccc(C[C@@H](NC(=O)c2cnc3cc(Cl)ccc3c2)C(=O)N[C@@H](Cc2ccccc2)C(=O)NCc2ccc(CN)cc2)cc1 [Example 115, 7-Chloro-quinoline-3-carboxylic acid [(R)-1-[(S)-1-(4-aminomethyl-benzylcarbamoyl)-2-phenyl-ethylcarbamoyl]-2-(4-ethoxy-phenyl)-ethyl]-amide] | 9000 | 417
CCOc1ccc(C[C@@H](NC(=O)c2scnc2C)C(=O)N[C@@H](Cc2ccccc2)C(=O)NCc2ccc(CN)cc2)cc1 [Example 117, 4-Methyl-thiazole-5-carboxylic acid[(R)-1-[(S)-1-(4-aminomethyl-benzylcarbamoyl)-2-phenyl-ethylcarbamoyl]-2-(4-ethoxy-phenyl)-ethyl]-amide] | 6100 | 48
CCOc1ccc(C[C@@H](NC(=O)c2cccc(OC)n2)C(=O)N[C@@H](Cc2ccccc2)C(=O)NCc2ccc(CN)cc2)cc1 [Example 120, 6-Methoxy-pyridine-2-carboxylic acid [(R)-1-[(S)-1-(4-aminomethyl-benzylcarbamoyl)-2-phenyl-ethylcarbamoyl]-2-(4-ethoxy-phenyl)-ethyl]-amide] | > 10000 | 540
CCOc1ccc(C[C@@H](NC(=O)c2cncc(OC)c2)C(=O)N[C@@H](Cc2ccccc2)C(=O)NCc2ccc(CN)cc2)cc1 [Example 121, N-[(R)-1-[(S)-1-(4-Aminomethyl-benzylcarbamoyl)-2-phenyl-ethylcarbamoyl]-2-(4-ethoxy-phenyl)-ethyl]-5-methoxy-nicotinamide] | > 10000 | 310
NCc1ccc(CNC(=O)[C@H](Cc2ccccc2)NC(=O)[C@@H](CC2CCCCC2)NC(=O)c2ccccc2)cc1 [Example 126, N-{(R)-1-[(S)-1-(4-Aminomethyl-benzylcarbamoyl)-2-phenyl-ethylcarbamoyl]-2-cyclohexyl-ethyl}-benzamide] | > 10000 | 4010
NCc1ccc(CNC(=O)[C@H](Cc2ccccc2)NC(=O)[C@@H](Cc2ccc(Cl)cc2)NC(=O)c2ccccc2)cc1 [Example 127, N-[(R)-1-[(S)-1-(4-Aminomethyl-benzylcarbamoyl)-2-phenyl-ethylcarbamoyl]-2-(4-chloro-phenyl)-ethyl]-benzamide] | > 10000 | 521
NCc1ccc(CNC(=O)[C@H](Cc2ccccc2)NC(=O)[C@@H](Cc2ccc(OCc3ccc(F)cc3)cc2)NC(=O)c2ccccc2)cc1 [Example 130, N-{(R)-1-[(S)-1-(4-Aminomethyl-benzylcarbamoyl)-2-phenyl-ethylcarbamoyl]-2-[4-(4-fluoro-benzyloxy)-phenyl]-ethyl}-benzamide] | > 10000 | 2490
NCc1ccc(CNC(=O)[C@H](Cc2ccccc2)NC(=O)[C@@H](Cc2ccc(OCc3c(Cl)cccc3Cl)cc2)NC(=O)c2ccccc2)cc1 [Example 134, N-{(R)-1-[(S)-1-(4-Aminomethyl-benzylcarbamoyl)-2-phenyl-ethylcarbamoyl]-2-[4-(2,6-dichloro-benzyloxy)-phenyl]-ethyl}-benzamide] | > 10000 | 10000
Cc1ccc(C[C@@H](NC(=O)c2ccccc2)C(=O)N[C@@H](Cc2ccccc2)C(=O)NCc2ccc(CN)cc2)cc1 [Example 135, N-{(R)-1-[(S)-1-(4-Aminomethyl-benzylcarbamoyl)-2-phenyl-ethylcarbamoyl]-2-p-tolyl-ethyl}-benzamide] | > 10000 | 424
NCc1ccc(CNC(=O)[C@H](Cc2ccccc2)NC(=O)[C@@H](Cc2ccc(OCc3cccc(F)c3)cc2)NC(=O)c2ccccc2)cc1 [Example 136, N-{(R)-1-[(S)-1-(4-Aminomethyl-benzylcarbamoyl)-2-phenyl-ethylcarbamoyl]-2-[4-(3-fluoro-benzyloxy)-phenyl]-ethyl}-benzamide] | > 10000 | 1020
NCc1ccc(CNC(=O)[C@H](Cc2ccccc2)NC(=O)[C@@H](Cc2ccccc2)NC(=O)c2ccccc2)cc1 [Example 139, N-{(R)-1-[(S)-1-(4-Aminomethyl-benzylcarbamoyl)-2-phenyl-ethylcarbamoyl]-2-phenyl-ethyl}-benzamide] | > 10000 | 1140
CCOc1ccc(C[C@@H](NC(=O)c2ccccc2)C(=O)N[C@@H](Cc2cccc(C(F)(F)F)c2)C(=O)NCc2ccc(CN)cc2)cc1 [Example 144, N-[(R)-1-[(S)-1-(4-Aminomethyl-benzylcarbamoyl)-2-(3-trifluoromethyl-phenyl)-ethylcarbamoyl]-2-(4-ethoxy-phenyl)-ethyl]-benzamide] | > 10000 | 340
CCOc1ccc(C[C@@H](NC(=O)c2ccccc2)C(=O)N[C@@H](Cc2ccc(C(F)(F)F)cc2)C(=O)NCc2ccc(CN)cc2)cc1 [Example 148, N-[(R)-1-[(S)-1-(4-Aminomethyl-benzylcarbamoyl)-2-(4-trifluoromethyl-phenyl)-ethylcarbamoyl]-2-(4-ethoxy-phenyl)-ethyl]-benzamide] | > 10000 | 934

More lines, now with the values ahead:

IC50 (Human KLK1) [nM] | IC50 (Human plasma kallikrein) [nM] | Structure (SMILES)
> 10000 | 61 | CCOc1ccc(C[C@@H](NC(=O)c2ccco2)C(=O)N[C@@H](Cc2ccccc2)C(=O)NCc2ccc(CN)cc2)cc1 [Example 118, Furan-2-carboxylic acid [(R)-1-[(S)-1-(4-aminomethyl-benzylcarbamoyl)-2-phenyl-ethylcarbamoyl]-2-(4-ethoxy-phenyl)-ethyl]-amide]
4800 | 519 | CCOc1ccc(C[C@@H](NC(=O)c2sccc2OC)C(=O)N[C@@H](Cc2ccccc2)C(=O)NCc2ccc(CN)cc2)cc1 [Example 122, 3-Methoxy-thiophene-2-carboxylic acid [(R)-1-[(S)-1-(4-aminomethyl-benzylcarbamoyl)-2-phenyl-ethylcarbamoyl]-2-(4-ethoxy-phenyl)-ethyl]-amide]
> 10000 | 214 | CCOc1ccc(C[C@@H](NC(=O)c2ccnc(OC)c2)C(=O)N[C@@H](Cc2ccccc2)C(=O)NCc2ccc(CN)cc2)cc1 [Example 123, N-[(R)-1-[(S)-1-(4-Aminomethyl-benzylcarbamoyl)-2-phenyl-ethylcarbamoyl]-2-(4-ethoxy-phenyl)-ethyl]-2-methoxy-isonicotinamide]
> 10000 | 2010 | NCc1ccc(CNC(=O)[C@H](Cc2ccccc2)NC(=O)[C@@H](Cc2ccc(OCc3ccc(Cl)cc3)cc2)NC(=O)c2ccccc2)cc1 [Example 128, N-{(R)-1-[(S)-1-(4-Aminomethyl-benzylcarbamoyl)-2-phenyl-ethylcarbamoyl]-2-[4-(4-chloro-benzyloxy)-phenyl]-ethyl}-benzamide]
> 10000 | 10000 | NCc1ccc(CNC(=O)[C@H](Cc2ccccc2)NC(=O)[C@@H](Cc2ccc(O)cc2)NC(=O)c2ccccc2)cc1 [Example 129, N-[(R)-1-[(S)-1-(4-Aminomethyl-benzylcarbamoyl)-2-phenyl-ethylcarbamoyl]-2-(4-hydroxy-phenyl)-ethyl]-benzamide]
> 10000 | 10000 | CC(C)C[C@@H](NC(=O)c1ccccc1)C(=O)N[C@@H](Cc1ccccc1)C(=O)NCc1ccc(CN)cc1 [Example 133, N-{(R)-1-[(S)-1-(4-Aminomethyl-benzylcarbamoyl)-2-phenyl-ethylcarbamoyl]-3-methyl-butyl}-benzamide]
> 10000 | 7540 | COc1ccc(C[C@@H](NC(=O)c2ccccc2)C(=O)N[C@@H](Cc2ccccc2)C(=O)NCc2ccc(CN)cc2)cn1 [Example 137, N-[(R)-1-[(S)-1-(4-Aminomethyl-benzylcarbamoyl)-2-phenyl-ethylcarbamoyl]-2-(6-methoxy-pyridin-3-yl)-ethyl]-benzamide]
> 10000 | 310 | COc1ccc(C[C@@H](NC(=O)c2ccccc2)C(=O)N[C@@H](Cc2ccccc2)C(=O)NCc2ccc(CN)cc2)cc1 [Example 138, N-[(R)-1-[(S)-1-(4-Aminomethyl-benzylcarbamoyl)-2-phenyl-ethylcarbamoyl]-2-(4-methoxy-phenyl)-ethyl]-benzamide]
> 10000 | 96 | CCOc1ccc(C[C@@H](NC(=O)c2ccccc2)C(=O)N[C@@H](Cc2ccc(Cl)cc2)C(=O)NCc2ccc(CN)cc2)cc1 [Example 142, N-[(R)-1-[(S)-1-(4-Aminomethyl-benzylcarbamoyl)-2-(4-chloro-phenyl)-ethylcarbamoyl]-2-(4-ethoxy-phenyl)-ethyl]-benzamide]
> 10000 | 232 | CCOc1ccc(C[C@@H](NC(=O)c2ccccc2)C(=O)N[C@@H](Cc2ccc(OC)cc2)C(=O)NCc2ccc(CN)cc2)cc1 [Example 146, N-[(R)-1-[(S)-1-(4-Aminomethyl-benzylcarbamoyl)-2-(4-methoxy-phenyl)-ethylcarbamoyl]-2-(4-ethoxy-phenyl)-ethyl]-benzamide]
> 10000 | 284 | CCOc1ccc(C[C@@H](NC(=O)c2ccccc2)C(=O)N[C@@H](Cc2ccncc2)C(=O)NCc2ccc(CN)cc2)cc1 [Example 147, N-[(R)-1-[(S)-1-(4-Aminomethyl-benzylcarbamoyl)-2-pyridin-4-yl-ethylcarbamoyl]-2-(4-ethoxy-phenyl)-ethyl]-benzamide]
> 10000 | 91 | CCOc1ccc(C[C@@H](NC(=O)c2ccccc2)C(=O)N[C@@H](Cc2cccc(F)c2)C(=O)NCc2ccc(CN)cc2)cc1 [Example 149, N-[(R)-1-[(S)-1-(4-Aminomethyl-benzylcarbamoyl)-2-(3-fluoro-phenyl)-ethylcarbamoyl]-2-(4-ethoxy-phenyl)-ethyl]-benzamide]
> 10000 | 1080 | CCOc1ccc(C[C@@H](NC(=O)c2ccccc2)C(=O)N[C@@H](Cc2ccccc2)C(=O)NCc2ccc(CN)c(C(F)(F)F)c2)cc1 [Example 156, N-[(R)-1-[(S)-1-(4-Aminomethyl-3-trifluoromethyl-benzylcarbamoyl)-2-phenyl-ethylcarbamoyl]-2-(4-ethoxy-phenyl)-ethyl]-benzamide]
